According to patent publication US20200138854A1, “Method of Detecting and Quantifying Bile Acid from Saliva” (Ironwood Pharmaceuticals, Inc., priority 2017, published 2020):
Several values for one entry are separate records, joined by “and”; a condition that tells them apart may be missing. Identical values can stand only once. Values belong to the compound of their own block, whether it stands above or below them.

Assays:
[1] = Frozen (−20° C.) short-term stability in cholestyramine-treated human saliva; conditions: for % Bias / Concentration, Mean / Concentration: −20° C.; for Concentration: individual values
Method: Quality control samples for the evaluation of accuracy and precision and for run acceptance were prepared on the day of sample extraction. QC samples prepared in cholestyramine-treated saliva are to be prepared in small volumes for analysis. Stability for these QC samples would be limited to short-term storage (i.e., 2 days) whereas untreated human saliva would be evaluated for long-term storage.
For stability in cholestyramine-treated human saliva, samples were prepared by spiking cholestyramine-treated human saliva with each analyte at the QC-LLOQ, QC-Low, QC-Mid and QC-High levels. The samples were stored in a −20° C. freezer. After 1 day and 2 days of storage, each sample was extracted in replicates of four for analysis.

[2] = Long-term (1 month at −20° C. and −80° C.) stability in untreated human saliva; conditions: for % Bias QC-High / % CV QC-High / Difference from Fresh (%) QC-High / Mean concentration QC-High / Concentration QC-High / Fresh QCs (Batch 34) Mean at Time Zero, QC-High / Mean at Time Zero, Fresh QCs (Batch 34), QC-High: untreated human saliva; for Long-term stability in untreated human saliva: at 80° C. (sic)
Method: For long-term stability in untreated human saliva, samples were prepared by spiking untreated human saliva with each analyte at the QC-Low and QC-High levels. The samples were stored in a −20° C. freezer and in a −80° C. freezer. After 1 month of storage, each sample was extracted in replicates of three for analysis.
A 100-μL aliquot of sample (calibration standards, quality controls, blanks, and stability samples) was transferred into a 96 well plate, according to a pre-defined layout. […] The plates were covered, vortex-mixed and then centrifuged for 5 minutes at 3200 rpm. Supernatants (350 μL each) were transferred into the corresponding wells of a clean 96 well plate and evaporated to dryness under nitrogen in a Turbovap set to 40° C. The dried residue in each well was reconstituted with 75 μL of 50:50 (v:v) methanol:water.

[3] = 1 Day at −20° C., nominal 0.500 ng/mL
[4] = 1 Day at −20° C., nominal 8.00 ng/mL
[5] = 1 Day at −20° C., nominal 80.0 ng/mL
[6] = 2 Days at −20° C., nominal 0.500 ng/mL
[7] = 2 Days at −20° C., nominal 8.00 ng/mL
[8] = 2 Days at −20° C., nominal 80.0 ng/mL
[9] = 1 month −20° C. storage, nominal 80.0 ng/mL
[10] = 1 month −20° C. storage, nominal 80.0 ng/mL, run 35
[11] = 1 month −80° C. storage, nominal 80.0 ng/mL
[12] = 1 month −80° C. storage, nominal 80.0 ng/mL, run 35
[13] = reference for −20° C. storage, nominal 80.0 ng/mL
[14] = reference for −80° C. storage, nominal 80.0 ng/mL
[15] = nominal 5.00 ng/mL, 1 Day frozen (−20° C.), cholestyramine-treated human saliva
[16] = nominal 5.00 ng/mL, 2 Days frozen (−20° C.), cholestyramine-treated human saliva
[17] = nominal 80.0 ng/mL, 1 Day frozen (−20° C.), cholestyramine-treated human saliva
[18] = nominal 80.0 ng/mL, 2 Days frozen (−20° C.), cholestyramine-treated human saliva
[19] = nominal 800 ng/mL, 1 Day frozen (−20° C.), cholestyramine-treated human saliva
[20] = nominal 800 ng/mL, 2 Days frozen (−20° C.), cholestyramine-treated human saliva
[21] = nominal 800 ng/mL, 1 month −20° C. storage
[22] = nominal 800 ng/mL, 1 month −80° C. storage
[23] = 1 Day, QC-High, nominal 80.0 ng/mL
[24] = 1 Day, QC-LLOQ, nominal 0.500 ng/mL
[25] = 1 Day, QC-Mid, nominal 8.00 ng/mL
[26] = 2 Days, QC-High, nominal 80.0 ng/mL
[27] = 2 Days, QC-LLOQ, nominal 0.500 ng/mL
[28] = 2 Days, QC-Mid, nominal 8.00 ng/mL

SMILES: C[C@H](CCC(=O)NCCS(=O)(=O)O)[C@H]1CC[C@H]2[C@@H]3[C@H](O)C[C@@H]4C[C@H](O)CC[C@]4(C)[C@H]3C[C@H](O)[C@]12C [Taurocholic Acid, Taurocholic acid]
% Bias QC-LLOQ [1, 3]: −1.1%
% CV QC-LLOQ [1, 3]: 2.4%
Mean concentration QC-LLOQ [1, 3]: 0.495 ng/mL
Concentration QC-LLOQ ([1]; 1 Day at −20° C., nominal 0.500 ng/mL, run 33): 0.481 ng/mL and 0.509 ng/mL and 0.491 ng/mL and 0.498 ng/mL
% Bias QC-Mid [1, 4]: −8.4%
% CV QC-Mid [1, 4]: 1.9%
Mean concentration QC-Mid [1, 4]: 7.33 ng/mL
Concentration QC-Mid ([1]; 1 Day at −20° C., nominal 8.00 ng/mL, run 33): 7.32 ng/mL and 7.29 ng/mL and 7.51 ng/mL and 7.18 ng/mL
% Bias QC-High [1, 5]: −6.6%
% CV QC-High [1, 5]: 2.7%
Mean concentration QC-High [1, 5]: 74.7 ng/mL
Concentration QC-High ([1]; 1 Day at −20° C., nominal 80.0 ng/mL, run 33): 74.9 ng/mL and 77.2 ng/mL and 72.3 ng/mL and 74.5 ng/mL
% Bias QC-LLOQ [1, 6]: 11.2%
% CV QC-LLOQ [1, 6]: 4.1%
Mean concentration QC-LLOQ [1, 6]: 0.556 ng/mL
Concentration QC-LLOQ ([1]; 2 Days at −20° C., nominal 0.500 ng/mL, run 33): 0.538 ng/mL and 0.563 ng/mL and 0.537 ng/mL and 0.585 ng/mL
% Bias QC-Mid [1, 7]: −6.7%
% CV QC-Mid [1, 7]: 4.8%
Mean concentration QC-Mid [1, 7]: 7.46 ng/mL
Concentration QC-Mid ([1]; 2 Days at −20° C., nominal 8.00 ng/mL, run 33): 6.98 ng/mL and 7.47 ng/mL and 7.55 ng/mL and 7.85 ng/mL
% Bias QC-High [1, 8]: −6.7%
% CV QC-High [1, 8]: 2.1%
Mean concentration QC-High [1, 8]: 74.7 ng/mL
Concentration QC-High ([1]; 2 Days at −20° C., nominal 80.0 ng/mL, run 33): 73.1 ng/mL and 75.1 ng/mL and 73.8 ng/mL and 76.6 ng/mL
Short-term stability in cholestyramine-treated human saliva ([1]; at −20° C.): up to 2 days
Stability in Treated Human Saliva ([1]; at −20° C., cholestyramine-treated human saliva): 2 days
% Bias QC-High [2, 9]: −2.9%
% CV QC-High [2, 9]: 3.0%
Difference from Fresh (%) QC-High [2, 9]: −4.5%
Mean concentration QC-High [2, 9]: 77.7 ng/mL
Concentration QC-High [2, 10]: 75.1 ng/mL and 78.3 ng/mL and 79.7 ng/mL
% Bias QC-High [2, 11]: −2.3%
% CV QC-High [2, 11]: 3.7%
Difference from Fresh (%) QC-High [2, 11]: −4.0%
Mean concentration QC-High [2, 11]: 78.1 ng/mL
Concentration QC-High [2, 12]: 81.2 ng/mL and 77.8 ng/mL and 75.4 ng/mL
Fresh QCs (Batch 34) Mean at Time Zero, QC-High [2, 13]: 81.4 ng/mL
Fresh QCs (Batch 34) Mean at Time Zero, QC-High [2, 14]: 81.4 ng/mL

Short-term stability in cholestyramine-treated human saliva ([1]; human): up to 2 days
Stability in Treated Human Saliva ([1]; human): 2 days
% Bias QC-LLOQ [1, 15]: 0.4%
Mean concentration QC-LLOQ [1, 15]: 5.02 ng/mL
% Bias QC-LLOQ [1, 16]: 18.3%
Mean concentration QC-LLOQ [1, 16]: 5.92 ng/mL
% Bias QC-Mid [1, 17]: 2.5%
Mean concentration QC-Mid [1, 17]: 82.0 ng/mL
% Bias QC-Mid [1, 18]: 4.6%
Mean concentration QC-Mid [1, 18]: 83.7 ng/mL
% Bias QC-High [1, 19]: −14.7%
Mean concentration QC-High [1, 19]: 683 ng/mL
% Bias QC-High [1, 20]: −9.3%
Mean concentration QC-High [1, 20]: 725 ng/mL
Long-term stability in untreated human saliva [2]: up to 1 month
Stability in Untreated Human Saliva ([2]; at −20° C.): 1 Month
Stability in Untreated Human Saliva ([2]; at −80° C.): 1 Month
% Bias QC-High [2, 21]: −15.1%
Difference from Fresh (%) QC-High [2, 21]: −13.5%
Mean concentration QC-High [2, 21]: 679 ng/mL
Concentration QC-High ([2]; nominal 800 ng/mL, 1 month −20° C. storage, single determinations): 693 ng/mL and 686 ng/mL and 659 ng/mL
% Bias QC-High [2, 22]: −15.7%
Difference from Fresh (%) QC-High [2, 22]: −14.1%
Mean concentration QC-High [2, 22]: 674 ng/mL
Concentration QC-High ([2]; nominal 800 ng/mL, 1 month −80° C. storage, single determinations): 701 ng/mL and 692 ng/mL and 630 ng/mL
Mean at Time Zero, Fresh QCs (Batch 34), QC-High ([2]; nominal 800 ng/mL, reference for −20° C. storage): 785 ng/mL
Mean at Time Zero, Fresh QCs (Batch 34), QC-High ([2]; nominal 800 ng/mL, reference for −80° C. storage): 785 ng/mL
SMILES: C[C@H](CCC(=O)O)[C@H]1CC[C@H]2[C@@H]3[C@H](O)C[C@@H]4C[C@H](O)CC[C@]4(C)[C@H]3CC[C@]12C [Chenodeoxycholic Acid, Chenodeoxycholic acid]
Concentration QC-LLOQ ([1]; nominal 5.00 ng/mL, 1 Day frozen (−20° C.), cholestyramine-treated human saliva, single determinations): 4.72 ng/mL and 5.20 ng/mL and 4.89 ng/mL and 5.28 ng/mL
Concentration QC-LLOQ ([1]; nominal 5.00 ng/mL, 2 Days frozen (−20° C.), cholestyramine-treated human saliva, single determinations): 5.73 ng/mL and 6.15 ng/mL and 5.60 ng/mL and 6.18 ng/mL
Concentration QC-Mid ([1]; nominal 80.0 ng/mL, 1 Day frozen (−20° C.), cholestyramine-treated human saliva, single determinations): 85.9 ng/mL and 84.8 ng/mL and 78.0 ng/mL and 79.2 ng/mL
Concentration QC-Mid ([1]; nominal 80.0 ng/mL, 2 Days frozen (−20° C.), cholestyramine-treated human saliva, single determinations): 80.0 ng/mL and 87.1 ng/mL and 88.9 ng/mL and 78.8 ng/mL
Concentration QC-High ([1]; nominal 800 ng/mL, 1 Day frozen (−20° C.), cholestyramine-treated human saliva, single determinations): 644 ng/mL and 699 ng/mL and 671 ng/mL and 717 ng/mL
Concentration QC-High ([1]; nominal 800 ng/mL, 2 Days frozen (−20° C.), cholestyramine-treated human saliva, single determinations): 693 ng/mL and 777 ng/mL and 725 ng/mL and 706 ng/mL

Short-term stability in cholestyramine-treated human saliva ([1]; human): up to 2 days
Stability in Treated Human Saliva ([1]; human): 2 days
% Bias [1, 23]: −1.3%
Concentration, Mean [1, 23]: 79.0 ng/mL
% Bias [1, 24]: 10.3%
Concentration, Mean [1, 24]: 0.551 ng/mL
% Bias [1, 25]: −2.5%
Concentration, Mean [1, 25]: 7.80 ng/mL
% Bias [1, 26]: −4.4%
Concentration, Mean [1, 26]: 76.5 ng/mL
% Bias [1, 27]: 17.2%
Concentration, Mean [1, 27]: 0.586 ng/mL
% Bias [1, 28]: −2.9%
Concentration, Mean [1, 28]: 7.77 ng/mL
% Bias QC-High [2, 9]: −4.7%
% CV QC-High [2, 9]: 3.5%
Difference from Fresh (%) QC-High [2, 9]: −5.5%
Mean concentration QC-High [2, 9]: 76.2 ng/mL
Concentration QC-High [2, 10]: 73.7 ng/mL and 79.0 ng/mL and 76.0 ng/mL
% Bias QC-High [2, 11]: −2.7%
% CV QC-High [2, 11]: 4.4%
Difference from Fresh (%) QC-High [2, 11]: −3.6%
Mean concentration QC-High [2, 11]: 77.8 ng/mL
Concentration QC-High [2, 12]: 80.2 ng/mL and 79.4 ng/mL and 73.9 ng/mL
Long-term stability in untreated human saliva [2]: up to 1 month
Stability in Untreated Human Saliva ([2]; at −20° C.): 1 Month
Stability in Untreated Human Saliva ([2]; at −80° C.): 1 Month
Fresh QCs (Batch 34) Mean at Time Zero, QC-High [2, 13]: 80.7 ng/mL
Fresh QCs (Batch 34) Mean at Time Zero, QC-High [2, 14]: 80.7 ng/mL
SMILES: C[C@H](CCC(=O)NCCS(=O)(=O)O)[C@H]1CC[C@H]2[C@@H]3CC[C@@H]4C[C@H](O)CC[C@]4(C)[C@H]3C[C@H](O)[C@]12C [Taurodeoxycholic Acid, Taurodeoxycholic acid]
Concentration [1, 23]: 78.6 ng/mL and 82.0 ng/mL and 76.9 ng/mL and 78.5 ng/mL
Concentration [1, 24]: 0.539 ng/mL and 0.570 ng/mL and 0.536 ng/mL and 0.560 ng/mL
Concentration [1, 25]: 7.71 ng/mL and 7.90 ng/mL and 7.81 ng/mL and 7.77 ng/mL
Concentration [1, 26]: 73.7 ng/mL and 76.5 ng/mL and 76.2 ng/mL and 79.5 ng/mL
Concentration [1, 27]: 0.596 ng/mL and 0.592 ng/mL and 0.555 ng/mL and 0.601 ng/mL
Concentration [1, 28]: 7.19 ng/mL and 8.02 ng/mL and 8.13 ng/mL and 7.72 ng/mL
